According to ChEMBL document CHEMBL1201862, “PubChem BioAssay data set” (2004):
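How tested: cells in 96-well plates exposed to compound for 48 hours at five concentrations. At the GI50, growth is halved.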 Calls of active or inactive are those of the source. Rule as the data show it: active = GI50 up to about 1.1 µM and inactive = higher.

Columns and labels:
Experiment in all cases: NCI-60 cell line screen, 48 h
786-0 = test system: 786-0
LOX IMVI = test system: LOX IMVI
SK-MEL-2 = test system: SK-MEL-2
U-251 = test system: U-251
SNB-75 = test system: SNB-75
LXFL 529 = test system: LXFL 529
HCT-15 = test system: HCT-15
SF-295 = test system: SF-295
UACC-62 = test system: UACC-62
K562 = test system: K562
NCI-H226 = test system: NCI-H226
NCI-H460 = test system: NCI-H460
DLD-1 = test system: DLD-1
DMS-273 = test system: DMS-273
MOLT-4 = test system: MOLT-4
SNB-19 = test system: SNB-19
NCI-H23 = test system: NCI-H23
HT-29 = test system: HT-29

SMILES	GI50 (786-0)	GI50 (LOX IMVI)	GI50 (SK-MEL-2)	GI50 (U-251)	GI50 (SNB-75)	GI50 (LXFL 529)	GI50 (HCT-15) [µM]	GI50 (SF-295)	GI50 (UACC-62)	GI50 (K562)	GI50 (NCI-H226)	GI50 (NCI-H460)	GI50 (DLD-1)	GI50 (DMS-273)	GI50 (MOLT-4)	GI50 (SNB-19)	GI50 (NCI-H23)	GI50 (HT-29)
Cc1ccc(OCC(=O)N2N=C(c3ccccc3)CC2(O)c2ccccc2)cc1 (configuration not stated)	16.4 µM (inactive)	99.5 µM (inactive)	> 100 µM (inactive)	13 µM (inactive)	55.3 µM (inactive)	19.3 µM (inactive)	> 100	76 µM (inactive)	43.4 µM (inactive)	20.2 µM (inactive)	25.9 µM (inactive)	15 µM (inactive)	27.9 µM (inactive)	20.8 µM (inactive)	7.89 µM (inactive)	> 100 µM (inactive)	22.6 µM (inactive)	> 10 µM (inactive)
COC1=CC(=O)NCCN1	> 100 µM (inactive)	23.5 µM (inactive)	> 100 µM (inactive)	> 100 µM (inactive)	> 100 µM (inactive)	> 100 µM (inactive)	52.2	> 100 µM (inactive)	> 100 µM (inactive)	> 100 µM (inactive)	> 100 µM (inactive)	29.3 µM (inactive)	> 100 µM (inactive)	78.7 µM (inactive)	> 100 µM (inactive)	> 100 µM (inactive)	> 100 µM (inactive)	> 100 µM (inactive)
O=C(NCCOC(=O)CCCCCCCCC(=O)OCCNC(=O)NC(=O)c1cn(Cc2ccccc2)c(=O)[nH]c1=O)NC(=O)c1cn(Cc2ccccc2)c(=O)[nH]c1=O	> 100 µM (inactive)	> 100 µM (inactive)	> 100 µM (inactive)	> 100 µM (inactive)	> 100 µM (inactive)	> 100 µM (inactive)	> 100	> 100 µM (inactive)	> 100 µM (inactive)	> 100 µM (inactive)	> 100 µM (inactive)	> 100 µM (inactive)	> 100 µM (inactive)	> 100 µM (inactive)	> 100 µM (inactive)	> 100 µM (inactive)	> 100 µM (inactive)	> 100 µM (inactive)
O=C1C(=O)N(c2ccc(Cl)cc2Cl)C(=O)C(=O)C1c1nc2ccccc2s1	> 100 µM (inactive)	> 100 µM (inactive)	> 100 µM (inactive)	> 43.9 µM (inactive)	20.9 µM (inactive)	50.6 µM (inactive)	> 89.1	> 100 µM (inactive)	78.3 µM (inactive)	31 µM (inactive)	> 74.8 µM (inactive)	> 100 µM (inactive)	> 51.8 µM (inactive)	> 100 µM (inactive)	23.3 µM (inactive)	> 100 µM (inactive)	> 64 µM (inactive)	> 82.2 µM (inactive)
CN(C)C(=O)/N=c1\ss/c(=N\C(=S)N(C)C)n1-c1ccccc1	19.6 µM (inactive)	3.53 µM (inactive)	> 57 µM (inactive)	27 µM (inactive)	13.8 µM (inactive)	7.55 µM (inactive)	15	40.2 µM (inactive)	14.4 µM (inactive)	0.294 µM (active)	27.2 µM (inactive)	17 µM (inactive)	26.6 µM (inactive)	0.125 µM (active)	7.78 µM (inactive)	35.6 µM (inactive)	18.7 µM (inactive)	–
N#Cc1c(C(N)=O)ncn1Cc1ccccc1	> 100 µM (inactive)	> 100 µM (inactive)	> 100 µM (inactive)	> 100 µM (inactive)	> 100 µM (inactive)	> 100 µM (inactive)	> 100	> 100 µM (inactive)	> 100 µM (inactive)	> 100 µM (inactive)	> 100 µM (inactive)	> 100 µM (inactive)	> 100 µM (inactive)	> 100 µM (inactive)	> 100 µM (inactive)	> 100 µM (inactive)	> 100 µM (inactive)	> 100 µM (inactive)
CC(C)N(C(=O)C12C3C4C5C3C1(C#N)C5C42)C(C)C (configuration not stated)	> 100 µM (inactive)	35.3 µM (inactive)	> 100 µM (inactive)	> 100 µM (inactive)	> 100 µM (inactive)	> 100 µM (inactive)	> 100	> 100 µM (inactive)	> 100 µM (inactive)	> 100 µM (inactive)	> 100 µM (inactive)	> 100 µM (inactive)	> 100 µM (inactive)	> 100 µM (inactive)	> 100 µM (inactive)	> 100 µM (inactive)	> 100 µM (inactive)	> 100 µM (inactive)
COc1cc(/C=C2/C(=O)N(C(=O)OC(C)C)C(Cc3cc(OC)c(OC)c(C)c3OC)C(=O)N2Cc2ccccc2)c(OC)c(C)c1OC (configuration not stated)	> 100 µM (inactive)	> 100 µM (inactive)	27.1 µM (inactive)	86.7 µM (inactive)	56 µM (inactive)	10.4 µM (inactive)	–	68.7 µM (inactive)	> 100 µM (inactive)	6.79 µM (inactive)	3.35 µM (inactive)	3.51 µM (inactive)	> 100 µM (inactive)	14 µM (inactive)	3.33 µM (inactive)	–	13.2 µM (inactive)	27.9 µM (inactive)
COC(=O)c1ncc2c(=O)[nH]c3ccccc3c2c1C(=O)OC	> 100 µM (inactive)	> 100 µM (inactive)	> 100 µM (inactive)	–	> 100 µM (inactive)	> 100 µM (inactive)	> 100	> 100 µM (inactive)	> 100 µM (inactive)	> 100 µM (inactive)	> 100 µM (inactive)	22 µM (inactive)	> 100 µM (inactive)	> 100 µM (inactive)	> 100 µM (inactive)	> 100 µM (inactive)	> 100 µM (inactive)	> 100 µM (inactive)
CC1(C)OC(=O)[C@@](C)([C@H](O)c2ccccc2)O1	> 100 µM (inactive)	–	> 100 µM (inactive)	> 100 µM (inactive)	65 µM (inactive)	> 100 µM (inactive)	–	> 100 µM (inactive)	78.2 µM (inactive)	67.9 µM (inactive)	27.6 µM (inactive)	> 100 µM (inactive)	> 100 µM (inactive)	> 100 µM (inactive)	45.1 µM (inactive)	> 100 µM (inactive)	> 100 µM (inactive)	> 100 µM (inactive)
O=C(O)c1ccccc1C1c2ccc(Cl)cc2Oc2cc(Cl)ccc21	> 100 µM (inactive)	> 100 µM (inactive)	> 100 µM (inactive)	> 100 µM (inactive)	> 100 µM (inactive)	> 100 µM (inactive)	> 100	> 100 µM (inactive)	> 100 µM (inactive)	> 100 µM (inactive)	–	> 100 µM (inactive)	> 100 µM (inactive)	> 100 µM (inactive)	> 100 µM (inactive)	> 100 µM (inactive)	> 100 µM (inactive)	> 100 µM (inactive)
O=c1c([Se]c2coc3ccccc3c2=O)coc2ccccc12	18.5 µM (inactive)	16 µM (inactive)	18.2 µM (inactive)	7.13 µM (inactive)	15.6 µM (inactive)	15.4 µM (inactive)	16.9	2.76 µM (inactive)	17.1 µM (inactive)	34.1 µM (inactive)	14.1 µM (inactive)	3.65 µM (inactive)	18.2 µM (inactive)	11 µM (inactive)	9.18 µM (inactive)	14 µM (inactive)	15.6 µM (inactive)	17.1 µM (inactive)
CC(=O)Nc1ccc(-c2nnc(SCC(=O)Nc3cccc(C)c3)o2)cc1	12.8 µM (inactive)	3.43 µM (inactive)	12.5 µM (inactive)	13.5 µM (inactive)	19.5 µM (inactive)	10.9 µM (inactive)	8.97	10.8 µM (inactive)	8.26 µM (inactive)	10.8 µM (inactive)	14.4 µM (inactive)	15 µM (inactive)	10.5 µM (inactive)	10.3 µM (inactive)	4.84 µM (inactive)	–	7.55 µM (inactive)	12.2 µM (inactive)
CCOCN1COCN/C1=N/C#N	> 100 µM (inactive)	–	> 100 µM (inactive)	> 100 µM (inactive)	> 100 µM (inactive)	> 100 µM (inactive)	58.5	> 100 µM (inactive)	> 100 µM (inactive)	> 100 µM (inactive)	> 100 µM (inactive)	> 100 µM (inactive)	> 100 µM (inactive)	> 100 µM (inactive)	> 100 µM (inactive)	> 100 µM (inactive)	> 100 µM (inactive)	> 100 µM (inactive)
CC(C)CCCC(C)[C@H]1CCC2[C@@H]3CCC4Nc5c(cnn5-c5ccccc5)C[C@]4(C)C3CC[C@@]21C (some centres not stated)	15.7 µM (inactive)	–	23.4 µM (inactive)	12.5 µM (inactive)	2.88 µM (inactive)	24.3 µM (inactive)	23.3	2.84 µM (inactive)	8.05 µM (inactive)	28.1 µM (inactive)	17.9 µM (inactive)	14.1 µM (inactive)	> 100 µM (inactive)	2.72 µM (inactive)	3.32 µM (inactive)	18.2 µM (inactive)	26.1 µM (inactive)	10.6 µM (inactive)
CCC(=O)OC1CCn2c1nc1c2C(=O)C(C)=C(NC(C)=O)C1=O (configuration not stated)	3.48 µM (inactive)	1.37 µM (inactive)	1.89 µM (inactive)	2.08 µM (inactive)	5.01 µM (inactive)	1.41 µM (inactive)	–	2.23 µM (inactive)	1.93 µM (inactive)	1.87 µM (inactive)	1.69 µM (inactive)	3.22 µM (inactive)	1.84 µM (inactive)	1.79 µM (inactive)	1.41 µM (inactive)	2.9 µM (inactive)	1.76 µM (inactive)	1.69 µM (inactive)
